In the assay the test system is 422866-222-R5-J1-PDC spheroids with HUVEC/MSC, viability. The assay is described as follows: Anticancer human tumor 422866-222-R5-J1-PDC patient-derived pancreatic adenocarcinoma cell line growth inhibition [GQUAD]. As to conditions: for viability, T/C: stronger effect = lower value. An excerpt: DNA G-quadruplex Stabilizer Agents in Combinations in Complex Spheroids
A high-throughput screen of multi-cell type tumor spheroids was designed to identify active combinations of DNA G-quadruplex stabilizer agents and targeted small molecules. Complex spheroids include a stromal component modeled by human endothelial cells (HUVEC) and fibroblasts modeled by human mesenchymal stem cells (MSCs). The concentration ranges selected for each drug and investigational agent were based upon clinically achievable concentrations if the clinical Cmax of the agent was known.
Compounds. The drugs and investigational agents: pidnarulex (CX-5461; NSC782164), APTO-253 (NSC789042), BRACO-19 (NSC847499), peposertib (NSC802822), ceralasertib (NSC780249), elimusertib (NSC800525), camonsertib (NSC841442), AZD-1390 (NSC803789), olaparib (NSC753686), talazoparib (NSC767125), ART-558 (NSC835418), sotorasib (NSC818433), MRTX-1133 (NSC836407), SN-38 (NSC673596), topotecan (NSC609699), etoposide (NSC141540), doxorubicin (NSC123127), gemcitabine (NSC613327), 5-fluorouracil (NSC19893), paclitaxel (NSC125973), vemurafenib (NSC761431), panobinostat (NSC761190), R-306465 (JNJ-16241199; NSC773264), adavosertib (NSC754352), TP-3654 (NSC805149), carboplatin (NSC241240), KSQ-4279 (NSC840948), and staurosporine (NSC755774) were obtained from the National Cancer Institute (NCI) Developmental Therapeutics Program Chemical Repository (34). The FDA-approved anticancer drug set is available from the NCI Developmental Therapeutics Program. […] The stock solutions were prepared in dimethyl sulfoxide (DMSO, Sigma-Aldrich, St. Louis, MO, cat. D2650) at 800-fold the tested concentration and stored at -70 degrees C prior to their use. All drugs and investigational agents were tested over a range starting from a high concentration at or near the clinical Cmax and decreasing in half-log increments. If the clinical Cmax for an agent had not been determined, the highest concentration tested was 10 microM.
2.3 Cell Culture. All cells were maintained in an incubator at 37 degrees C and 5% CO2 with 95% humidity. The PDC lines were cultured according to standard operating procedures established by the NCI PDMR. All PDCs were thawed and cultured in Matrigel-coated flasks prepared with a working solution of 1X Ham's F-12 nutrient mix, without supplementation (Invitrogen, cat. 11765054), 100 U/mL penicillin-streptomycin (Invitrogen, cat. 15140122), and 2.5% Matrigel (Corning Inc., cat. 354248) for the first three passages. The 857933-349-R-J2-PDC line was cultured in 6C/Colon 1B media, which includes advanced DMEM/F-12 (Thermo Fisher Scientific, cat. 12634028), 10 mM HEPES (Thermo Fisher Scientific, cat. 15630080), 1X GlutaMAX supplement (Thermo Fisher Scientific, cat. 35050061), 0.1 mg/mL primocin (InvivoGen, cat. ant-pm-2), 10% defined fetal bovine serum, heat inactivated (HyClone Laboratories Inc., cat. SH30070.03HI), 50% L-WRN conditioned media (ATCC, cat. CRL-3276), 1.25 mM N-Acetyl-L-cysteine (Sigma-Aldrich, cat. A9165), 10 mM nicotinamide (Sigma-Aldrich, cat. N0636), 1X B-27 supplement (Thermo Fisher Scientific, cat. 17504044), 1X N-2 supplement (Thermo Fisher Scientific, cat. 17502048), 10 microM Y-27632 dihydrochloride (Tocris Bioscience, cat. 1254), and 50 ng/mL human EGF recombinant protein (Thermo Fisher Scientific, cat. PHG0311). The 485176-168-R4-J1-PDC line was cultured in Panc media, which includes all 6C/Colon 1B media components plus 100 ng/mL human FGF-10 (Thermo Fisher Scientific, cat. 100-26), 500 nM SB-431542 (Selleckchem, cat. S1067), and gastrin (Tocris, cat. 3006).
[…]

Where “and” joins values, the source holds several entries; their conditions need not be identical. Identical values can stand only once.
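Further: spheroids exposed to compounds for seven days before reading.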
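Wherever viability, T/C is given: percent viability relative to DMSO vehicle control taken as 100%.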

As for `Cc1[nH]c2ccc(F)cc2c1-c1nc2c3cccnc3c3ncccc3c2[nH]1`, the viability, T/C (compound 3.16 µM) is 84.5% [middle of 12 runs]. Moreover, the IC50 runs as follows: (compound alone, run of 04/16/2024) more than 10 µM; (compound alone, run of 04/22/2024) more than 10 µM.
Turning to `Cc1[nH]c2ccccc2c1CCNCc1ccc(/C=C/C(=O)NO)cc1` + Cc1[nH]c2ccc(F)cc2c1-c1nc2c3cccnc3c3ncccc3c2[nH]1, the IC50 by setting is: (curve of first compound, second compound 0.0316 µM) more than 0.316 µM; (curve of first compound, second compound 0.1 µM) more than 0.316 µM; (curve of first compound, second compound 0.316 µM) more than 0.316 µM; (curve of first compound, second compound 1 µM) more than 0.316 µM; (curve of first compound, second compound 3.16 µM) more than 0.316 µM; (curve of first compound, second compound 10 µM) more than 0.316 µM. For the same compound, the viability, T/C was 113% (second compound 0.0316 µM, first compound 0.000999 µM); 92.7% (second compound 0.0316 µM, first compound 0.00316 µM); 110% (second compound 0.0316 µM, first compound 0.00999 µM); 98.6% (second compound 0.0316 µM, first compound 0.0316 µM); 101% (second compound 0.0316 µM, first compound 0.0999 µM); 102% (second compound 0.0316 µM, first compound 0.316 µM). The viability, T/C (second compound 0.1 µM, first compound 0.000999 µM) was 127%; the viability, T/C (second compound 0.1 µM, first compound 0.00316 µM) was 108%; the viability, T/C (second compound 0.1 µM, first compound 0.00999 µM) is 102%; the viability, T/C (second compound 0.1 µM, first compound 0.0316 µM) is 93%; the viability, T/C (second compound 0.1 µM, first compound 0.0999 µM) is 111%; the viability, T/C (second compound 0.1 µM, first compound 0.316 µM) was 94%. Further, the viability, T/C (second compound 0.316 µM, first compound 0.000999 µM) is 96.6%; the viability, T/C (second compound 0.316 µM, first compound 0.00316 µM) is 97.2%; the viability, T/C (second compound 0.316 µM, first compound 0.00999 µM) is 121%; the viability, T/C (second compound 0.316 µM, first compound 0.0316 µM) is 105%; the viability, T/C (second compound 0.316 µM, first compound 0.0999 µM) is 115%; the viability, T/C (second compound 0.316 µM, first compound 0.316 µM) was 98.9%. The viability, T/C runs as follows: (second compound 1 µM, first compound 0.000999 µM) 74.5%; (second compound 1 µM, first compound 0.00316 µM) 93.9%; (second compound 1 µM, first compound 0.00999 µM) 114%; (second compound 1 µM, first compound 0.0316 µM) 112%; (second compound 1 µM, first compound 0.0999 µM) 103%; (second compound 1 µM, first compound 0.316 µM) 111%. Also, the viability, T/C was 64.2% (second compound 3.16 µM, first compound 0.000999 µM); 73.7% (second compound 3.16 µM, first compound 0.00316 µM); 68.2% (second compound 3.16 µM, first compound 0.00999 µM); 73.9% (second compound 3.16 µM, first compound 0.0316 µM); 75.2% (second compound 3.16 µM, first compound 0.0999 µM); 78.9% (second compound 3.16 µM, first compound 0.316 µM). Besides, the viability, T/C is 52.1% (second compound 10 µM, first compound 0.000999 µM); 66.2% (second compound 10 µM, first compound 0.00316 µM); 64.7% (second compound 10 µM, first compound 0.00999 µM); 65.7% (second compound 10 µM, first compound 0.0316 µM); 61.1% (second compound 10 µM, first compound 0.0999 µM); 67.6% (second compound 10 µM, first compound 0.316 µM).
Turning to `COc1cccc2c1C(=O)c1c(O)c3c(c(O)c1C2=O)CC(O)(C(=O)CO)CC3OC1CC(N)C(O)C(C)O1` (stereo not drawn), the viability, T/C is 94.3% and 90.9% and 92.6% (compound 0.0316 µM); 58.5% and 62.5% and 78.8% (compound 0.1 µM); 61.9% and 57.1% and 68.5% (compound 0.316 µM); 41.8% and 51.2% and 47.5% (compound 1 µM); 35.5% and 35.9% and 29.4% (compound 3.16 µM); 32% and 40.5% and 31.3% (compound 10 µM). For the same compound, for the setting “curve of compound”, the concentration for half-maximal inhibition (IC50) was 0.421 µM and 0.585 µM and 0.812 µM.
Turning to `CC(=O)O[C@H]1C(=O)[C@@]2(C)[C@H]([C@H](OC(=O)c3ccccc3)[C@]3(O)C[C@H](OC(=O)[C@H](O)[C@@H](NC(=O)c4ccccc4)c4ccccc4)C(C)=C1C3(C)C)[C@]1(OC(C)=O)CO[C@@H]1C[C@@H]2O`, the viability, T/C reads like this: (compound 0.0316 µM) 96% and 75.6% and 77.1%; (compound 0.1 µM) 89.9% and 64.8% and 64.4%; (compound 0.316 µM) 82.1% and 66.5% and 76.9%; (compound 1 µM) 47.7% and 68.6% and 75.5%; (compound 3.16 µM) 39.7% and 75% and 67.1%. Under “curve of compound”, the 50% inhibitory concentration (IC50) was 1.46 µM and > 10 µM.
As to `CC[C@@]1(O)C(=O)OCc2c1cc1n(c2=O)Cc2cc3c(CN(C)C)c(O)ccc3nc2-1`, the viability, T/C is 83.5% and 106% and 100% (compound 0.000999 µM); 90.9% and 90.2% and 96.4% (compound 0.00316 µM); 95.7% and 88.8% and 103% (compound 0.00999 µM); 75.4% and 74.9% and 70.9% (compound 0.0316 µM); 45.5% and 52.7% and 40.6% (compound 0.0999 µM); 42.4% and 50.6% and 38.1% (compound 0.316 µM). Further, the half-inhibitory concentration (IC50) (curve of compound) is 0.0808 µM and 0.258 µM and 0.0677 µM.
Consider `Cn1ncnc1[C@H]1c2n[nH]c(=O)c3cc(F)cc(c23)N[C@@H]1c1ccc(F)cc1`, for which the viability, T/C (compound 0.000999 µM) was 91.3% and 88.8% and 87.1%; the viability, T/C (compound 0.00316 µM) is 107% and 96.2% and 77.8%; the viability, T/C (compound 0.00999 µM) was 96.3% and 99.6% and 107%; the viability, T/C (compound 0.0316 µM) was 91.8% and 90.4% and 88.1%; the viability, T/C (compound 0.0999 µM) is 80.6% and 91.5% and 75.3%; the viability, T/C (compound 0.316 µM) was 78.1% and 72.3% and 73.5%. Further, the IC50 (curve of compound) was more than 0.316 µM.
On to `CCc1c2c(nc3ccc(O)cc13)-c1cc3c(c(=O)n1C2)COC(=O)[C@]3(O)CC`, for which the viability, T/C is, setting by setting: (compound 0.000999 µM) 53.2% and 55.8% and 56.2%; (compound 0.00316 µM) 38.6% and 47.6% and 39.6%; (compound 0.00999 µM) 42.5% and 37.8% and 43.5%; (compound 0.0316 µM) 36.8% and 46.3% and 25.2%; (compound 0.0999 µM) 33.3% and 47.4% and 35.1%; (compound 0.316 µM) 34% and 43.8% and 29.1%. Also, the IC50 (curve of compound) is < 0.000999 µM and 0.00117 µM and 0.00164 µM.
With `Nc1ccn(C2OC(CO)C(O)C2(F)F)c(=O)n1` (stereo not drawn), the viability, T/C (compound 0.0316 µM) is 87.9% and 88.9% and 93.4%; the viability, T/C (compound 0.1 µM) is 66% and 76.8% and 74.1%; the viability, T/C (compound 0.316 µM) was 61.7% and 70.3% and 61.1%; the viability, T/C (compound 1 µM) was 51.8% and 55.9% and 40%; the viability, T/C (compound 3.16 µM) is 41.4% and 48.6% and 40%; the viability, T/C (compound 10 µM) was 40.8% and 39.7% and 38%. The IC50 (curve of compound) is 0.993 µM and 2.48 µM and 0.598 µM.
In the case of `O=c1[nH]cc(F)c(=O)[nH]1`, the viability, T/C was 103% and 89.7% and 95.6% (compound 0.0316 µM); 93.4% and 92.9% and 86.8% (compound 0.1 µM); 91% and 104% and 109% (compound 0.316 µM); 88% and 89.2% and 87.2% (compound 1 µM); 78.2% and 73.6% and 76.3% (compound 3.16 µM); 71.8% and 68.2% and 62.4% (compound 10 µM). Besides, the IC50 (curve of compound) is more than 10 µM.

As usually defined, the viability, T/C is the ratio of treated to control. Broadly, the IC50 is the concentration at which inhibition is half-maximal.
